Patent publication US10807964B2, “Benzothiophene-based selective estrogen receptor downregulators” (The Board of Trustees of the University of Illinois, priority 2015, dated 2020)

Experiments:
estrogen receptor = biological target: T1, estrogen receptor (Homo sapiens, UniProt P03372); assay: Western blot of estrogen receptor downregulation (FIG. 4); assay type: cell-based; conditions: 10 nM concentrations
T1 construct: Whole-cell extracts of cultured cells were prepared in lysis buffer; endogenous in cells
T1 sequence (P03372 1-595): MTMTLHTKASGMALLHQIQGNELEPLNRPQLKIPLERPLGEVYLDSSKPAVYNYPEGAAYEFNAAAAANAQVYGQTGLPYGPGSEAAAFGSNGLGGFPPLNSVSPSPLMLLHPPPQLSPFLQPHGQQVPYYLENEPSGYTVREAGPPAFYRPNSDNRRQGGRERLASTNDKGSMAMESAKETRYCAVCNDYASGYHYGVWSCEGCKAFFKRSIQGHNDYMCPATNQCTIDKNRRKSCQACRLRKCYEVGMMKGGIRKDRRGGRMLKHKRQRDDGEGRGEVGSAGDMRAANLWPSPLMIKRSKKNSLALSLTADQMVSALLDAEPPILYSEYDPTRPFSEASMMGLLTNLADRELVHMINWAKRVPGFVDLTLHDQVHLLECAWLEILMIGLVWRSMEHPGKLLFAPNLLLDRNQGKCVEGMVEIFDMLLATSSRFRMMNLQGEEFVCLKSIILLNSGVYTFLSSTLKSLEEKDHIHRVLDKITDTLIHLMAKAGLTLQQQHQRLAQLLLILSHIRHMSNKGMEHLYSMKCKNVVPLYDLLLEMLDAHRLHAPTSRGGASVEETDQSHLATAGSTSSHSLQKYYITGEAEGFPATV
Method: Whole-cell extracts of cultured cells were prepared in lysis buffer (200 mmol/L Tris, 1% Triton X-100, 5 mmol/L; EDTA) with protease and phosphatase inhibitor cocktails (1:50, both from Sigma-Aldrich) after scraping from the culture plates. Protein concentration was measured using the Bradford method (Bio-Rad). Proteins were separated under denaturing conditions and blotted onto nitrocellulose membrane (Bio-Rad) using a wet transfer system (Bio-Rad). Images of blots were acquired on a Bio-Rad ChemiDoc System following incubation with SuperSignal West Dura luminol solution (Thermo Fisher Scientific).

[1] = Mouse plasma concentration after oral administration; assay type: in vivo; conditions: average of three mice; for concentration at 0.5 h: 0.5 h after oral gavage at 100 mg/kg; for concentration at 4 h: 4 h after oral gavage at 100 mg/kg
MCF-7:Tam1 tumors = assay: MCF-7:TAM1 xenograft model of endocrine-resistant ER+ breast cancer; assay type: in vivo, ovariectomized athymic nude mice; conditions: 100 mg/kg daily by oral gavage; GDN-0810 at day 23 after treatment
ERα = biological target: T2, ERα (Homo sapiens, UniProt P03372); assay: ER downregulation/degradation by in-cell western (ICW) in MCF-7:WS8 cells; assay type: cell-based; conditions: Table 2; read-out: IC50 of ER downregulation from in-cell western blot experiments
T2 construct: MCF-7:WS8 cells were kept in stripped medium 2 days; endogenous in cells; host or cells: MCF-7:WS8
T2 sequence (P03372 1-595): T1 sequence (P03372 1-595)

Compound	Estrogen receptor downregulation, western blot (estrogen receptor)	concentration at 0.5 h [1] [nM]	concentration at 4 h [1] [nM]	also measured
Cc1ccc(F)cc1C(=O)c1sc2cc(O)ccc2c1Oc1ccc(/C=C/C(=O)O)cc1 [Compound 6, (E)-3-(4-((2-(5-Fluoro-2-methylbenzoyl)-6-hydroxybenzo[b]thiophen-3-yl)oxy)phenyl) acrylic acid]	downregulate the estrogen receptor	–	–	–
Cc1ccsc1C(=O)c1sc2cc(O)ccc2c1Oc1ccc(/C=C/C(=O)O)cc1 [Compound 7, (E)-3-(4-((6-Hydroxy-2-(3-methylthiophene-2-carbonyl)benzo[b]thiophen-3-yl)oxy)phenyl) acrylic acid]	downregulate the estrogen receptor	–	–	–
Cc1ccc(C(=O)c2sc3cc(O)ccc3c2Oc2ccc(/C=C/C(=O)O)cc2)c(C)c1 [Compound 12, (E)-3-(4-((2-(2,4-Dimethylbenzoyl)-6-hydroxybenzo[b]thiopben-3-yl)oxy)phenyl) acrylic acid]	–	3870	432	–
Cc1cccc(C)c1C(=O)c1sc2cc(O)ccc2c1Oc1ccc(/C=C/C(=O)O)cc1 [Compound 11, (E)-3-(4-((2-(2,6-Dimethylbenzoyl)-6-hydroxybenzo[b]thiophen-3-yl)oxy)phenyl) acrylic acid]	–	1010	0.5	–
CCc1ccccc1C(=O)c1sc2cc(O)ccc2c1Oc1ccc(/C=C/C(=O)O)cc1 [Compound 3, (E)-3-(4-((2-(2-Ethylbenzoyl)-6-hydroxybenzo[b]thiophen-3-yl)oxy)phenyl) acrylic acid]	downregulate the estrogen receptor	–	–	–
Cc1cc(Cl)cc(C)c1C(=O)c1sc2cc(O)ccc2c1Oc1ccc(/C=C/C(=O)O)cc1 [Compound 21, (E)-3-(4-((2-(4-Chloro-2,6-dimethylbenzoyl)-6-hydroxybenzo[b]thiophen-3-yl)oxy)phenyl) acrylic acid]	–	–	858	–
Cc1cc(F)ccc1C(=O)c1sc2cc(O)ccc2c1Oc1ccc(/C=C/C(=O)O)cc1 [Compound 1, (E)-3-(4-((2-(4-Fluoro-2-methylbenzoyl)-6-hydroxybenzo[b]thiophen-3-yl)oxy)phenyl)acrylic acid]	downregulate the estrogen receptor	1240	145	–
Cc1cc(F)cc(C)c1C(=O)c1sc2cc(O)ccc2c1Oc1ccc(/C=C/C(=O)O)cc1 [Compound 20, (E)-3-(4-((2-(4-Fluoro-2,6-dimethylbenzoyl)-6-hydroxybenzo[b]thiophen-3-yl)oxy)phenyl) acrylic acid]	–	9720	164	–
Cc1ccccc1C(=O)c1sc2cc(O)ccc2c1Oc1ccc(/C=C/C(=O)O)cc1 [Compound 5, (E)-3-(4-((6-Hydroxy-2-(2-methylbenzoyl)benzo[b]thiophen-3-yl)oxy)phenyl) acrylic acid]	downregulate the estrogen receptor	5580	47	–
CC/C(=C(\c1ccccc1)c1ccc(OCCN(C)C)cc1)c1ccccc1 [Tamoxifen]	–	–	–	Regression of tumor size (tumor area reduction) (MCF-7:Tam1 tumors): entirely without effect
O=C(O)/C=C/c1ccc(Oc2c(C(=O)c3ccccc3)sc3cc(O)ccc23)cc1 [Compound 4, (E)-3-(4-((2-Benzoyl-6-hydroxybenzo[b]thiophen-3-yl)oxy)phenyl) acrylic acid]	–	–	–	DC50 (ERα): 5 nM
